Bounds are passed on as bounds.

This test deals with T1, Prostaglandin G/H synthase 2 (Ovis aries, UniProt P79208).
T1 sequence (P79208 whole entry): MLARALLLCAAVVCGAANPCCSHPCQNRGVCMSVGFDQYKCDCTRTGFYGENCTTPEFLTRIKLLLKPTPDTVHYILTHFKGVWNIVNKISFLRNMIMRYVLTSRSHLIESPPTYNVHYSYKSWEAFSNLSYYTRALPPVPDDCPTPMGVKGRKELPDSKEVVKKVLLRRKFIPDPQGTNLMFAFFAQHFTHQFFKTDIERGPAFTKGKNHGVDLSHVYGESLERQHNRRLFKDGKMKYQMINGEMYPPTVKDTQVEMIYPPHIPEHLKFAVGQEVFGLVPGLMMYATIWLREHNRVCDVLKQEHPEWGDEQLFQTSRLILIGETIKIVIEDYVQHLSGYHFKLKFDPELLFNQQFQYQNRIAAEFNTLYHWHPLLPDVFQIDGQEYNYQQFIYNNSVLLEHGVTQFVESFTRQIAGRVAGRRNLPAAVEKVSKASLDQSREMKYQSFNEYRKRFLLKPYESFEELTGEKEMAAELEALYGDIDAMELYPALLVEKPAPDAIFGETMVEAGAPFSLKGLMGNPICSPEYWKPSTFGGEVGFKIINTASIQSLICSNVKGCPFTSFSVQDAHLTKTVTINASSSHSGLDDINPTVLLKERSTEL
Description: Inhibitory activity against Prostaglandin G/H synthase 2 from sheep placental cotyledons.
Consider `C=C[C@@]1(C)CC=C2C(CCC3[C@](C)(CC(=O)O)CCC[C@@]23C)C1` (stereo not given in full), for which the concentration for half-maximal inhibition (IC50) is 82.3 µM.
The compound `C[C@]1(CCF)CC=C2C(CCC3[C@](C)(C(=O)O)CCC[C@@]23C)C1` (stereo not given in full) registered an IC50 greater than 1000 µM.
For `C[C@]1(CC(F)F)CC=C2C(CCC3[C@](C)(C(=O)O)CCC[C@@]23C)C1` (stereo not given in full), the half-inhibitory concentration (IC50) stood at 796 µM.
In turn, `COCC[C@@]1(C)CC=C2C(CCC3[C@](C)(C(=O)O)CCC[C@@]23C)C1` (stereo not given in full) yielded a half-inhibitory concentration (IC50) greater than 1000 µM.
`C=C[C@@]1(C)CC=C2C(CCC3[C@](C)(CCC/C=C/C(=O)O)CCC[C@@]23C)C1` (stereo not given in full) came in with an IC50 of 13.2 µM. In other words, the double-digit micromolar range.
For `C=C[C@@]1(C)CC=C2C(CCC3[C@](C)(CCC(=O)O)CCC[C@@]23C)C1` (stereo not given in full), half-maximal inhibition (IC50) required 105 µM.
As to `C=C[C@@]1(C)CC=C2C(CCC3[C@](C)(C(N)=O)CCC[C@@]23C)C1` (stereo not given in full), the IC50 was greater than 1000 µM.
The same measure for `C=C[C@@]1(C)CC=C2C(CCC3[C@](C)(C(=O)NO)CCC[C@@]23C)C1` (stereo not given in full): 819 µM.
In turn, `C=C[C@@]1(C)CC=C2C(CCC3[C@](C)(C(=O)OC)CCC[C@@]23C)C1` (stereo not given in full) came in with an IC50 greater than 1000 µM.
As to `C[C@@]1(C2CO2)CC2CCC3[C@](C)(C(=O)O)CCC[C@@]3(C)[C@@]23O[C@H]3C1` (stereo not given in full), the IC50 is greater than 1000 µM.
Compound `C[C@]1(CCF)CC=C2C(CCC3[C@](C)(C(=O)F)CCC[C@@]23C)C1` (stereo not given in full) showed an IC50 of 194 µM.
The same measure for `CC(=O)OCC[C@@]1(C)CC=C2C(CCC3[C@](C)(C(=O)O)CCC[C@@]23C)C1` (stereo not given in full): greater than 1000 µM; for `C[C@]1(CCO)CC=C2C(CCC3[C@](C)(C(=O)O)CCC[C@@]23C)C1` (stereo not given in full): greater than 1000 µM.
With `CC[C@@]1(C)CC=C2C(CCC3[C@](C)(C(=O)O)CCC[C@@]23C)C1` (stereo not given in full), half-maximal inhibition (IC50) required 425 µM.
The same measure for `C=C[C@@]1(C)CC=C2C(CCC3[C@](C)(CO)CCC[C@@]23C)C1` (stereo not given in full) [ACANTHOL]: greater than 1000 µM.

By IC50 is commonly meant the concentration needed to halve the response being measured. The low end stands for inhibition by little substance, the high end for a need for much substance.

The values are drawn from ChEMBL document CHEMBL1134200, “Pimarane cyclooxygenase 2 (COX-2) inhibitor and its structure-activity relationship” (Bioorg Med Chem Lett, 2001).
